# Patent US4517181A, “Mammalian PGRF” (The Salk Institute for Biological Studies, priority 1982, dated 1985)
# Experiments:
# [1] = system: cells of rat pituitary glands; assay: in vitro GH release, rat pituitary cell monolayer culture bioassay (ir GH by radioimmunoassay); type: cell-based; conditions: for GH secretion in vitro % of controls: Table I
# Method: To determine the effectiveness of the peptides to promote the release of growth hormone, in vitro assays are carried out using synthetic PGRF (1-40) of Example II in side-by-side comparison with equimolar concentrations of the extracted and purified native PGRF (1-40) and of a GRF Reference Standard having a known effectiveness to promote the release of growth hormone from pituitary cells. The GRF Reference standard is described and defined in Brazeau, et al., Endocrinology, Vol. 110, A538(1982) and is an amount of a preparation of rat hypothalamic origin that produces a half-maximal response in terms of GH release in a pituitary cell monolayer bioassay. Cultures are used which include cells of rat pituitary glands removed some four to five days previously. Both cultures of a defined standard medium and cultures which are considered optimal for the secretion of growth hormone are used for the comparative testing, in the general manner described in Brazeau, et al. Regulatory Peptides, 1, 255, 1981. Incubation with the substance to be tested is carried out for 3 to 4 hours, and aliquots of the culture medium are removed and processed to measure their contents in inmunoreactive GH(ir GH) by a well-characterized radioimmunoassay.
# The in vitro assays described in Example VII are repeated using Native PGRF(1-40) and Native PGRF(1-44) and the results are set forth in following Table III: […]
# [2] = system: pituitary growth hormone release (serum ir-GH); assay: in vivo release of pituitary growth hormone after one single intravenous injection in normal rats; parameters: species or system rat; conditions: rat
# From the text: In addition to the in vitro tests for secretion of growth hormone, in vivo experiments were also run by injecting the synthetic peptide into normal male rats about 200 g. body weight, anesthetized with pentobarbital.
structure (smiles),measurement,setting,value
"CC[C@H](C)[C@H](NC(=O)[C@H](C)NC(=O)[C@H](CC(=O)O)NC(=O)[C@H](C)NC(=O)[C@@H](N)Cc1ccc(O)cc1)C(=O)N[C@@H](Cc1ccccc1)C(=O)N[C@H](C(=O)N[C@@H](CC(N)=O)C(=O)N[C@@H](CO)C(=O)N[C@@H](Cc1ccc(O)cc1)C(=O)N[C@@H](CCCNC(=N)N)C(=O)N[C@@H](CCCCN)C(=O)N[C@H](C(=O)N[C@@H](CC(C)C)C(=O)NCC(=O)N[C@@H](CCC(N)=O)C(=O)N[C@@H](CC(C)C)C(=O)N[C@@H](CO)C(=O)N[C@@H](C)C(=O)N[C@@H](CCCNC(=N)N)C(=O)N[C@@H](CCCCN)C(=O)N[C@@H](CC(C)C)C(=O)N[C@@H](CC(C)C)C(=O)N[C@@H](CCC(N)=O)C(=O)N[C@@H](CC(=O)O)C(=O)N[C@H](C(=O)N[C@@H](CCSC)C(=O)N[C@@H](CO)C(=O)N[C@@H](CCCNC(=N)N)C(=O)N[C@@H](CCC(N)=O)C(=O)N[C@@H](CCC(N)=O)C(=O)NCC(=O)N[C@@H](CCC(=O)O)C(=O)N[C@@H](CO)C(=O)N[C@@H](CC(N)=O)C(=O)N[C@@H](CCC(N)=O)C(=O)N[C@@H](CCC(=O)O)C(=O)N[C@@H](CCCNC(=N)N)C(=O)NCC(=O)N[C@@H](C)C(=O)O)[C@@H](C)CC)C(C)C)[C@@H](C)O [Synthetic PGRF (1-40), PGRF (1-40)]",ED50,"[1]; GH release in vitro, Example VII",about 113 picograms
same,GH secretion in vitro % of controls,[1]; 10 fmoles,269 ± 20 % of controls
same,GH secretion in vitro % of controls,[1]; 100 fmoles,701 ± 6 % of controls
same,GH secretion in vitro % of controls,[1]; 1000 fmoles,990 ± 42 % of controls
same,biological activity compared with the native peptide,"[1]; equimolar ratios, Example VII",has the full biological activity of the native peptide
same,serum ir-GH,"[2]; 0.01 μg i.v., +5 min",284 ± 20 nanograms/ml
same,serum ir-GH,"[2]; 0.01 μg i.v., +10 min",238 ± 51 nanograms/ml
same,serum ir-GH,"[2]; 0.01 μg i.v., +15 min",201 ± 47 nanograms/ml
same,serum ir-GH,"[2]; 0.01 μg i.v., +30 min",261 ± 50 nanograms/ml
same,serum ir-GH,"[2]; 0.01 μg i.v., +60 min",299 ± 25 nanograms/ml
same,serum ir-GH,"[2]; 0.01 μg i.v., -1 min (before injection)",173 ± 23 nanograms/ml
same,serum ir-GH,"[2]; 0.1 μg i.v., +5 min",694 ± 246 nanograms/ml
same,serum ir-GH,"[2]; 0.1 μg i.v., +10 min",582 ± 290 nanograms/ml
same,serum ir-GH,"[2]; 0.1 μg i.v., +15 min",758 ± 562 nanograms/ml
same,serum ir-GH,"[2]; 0.1 μg i.v., +30 min",280 ± 70 nanograms/ml
same,serum ir-GH,"[2]; 0.1 μg i.v., +60 min",424 ± 129 nanograms/ml
same,serum ir-GH,"[2]; 0.1 μg i.v., -1 min (before injection)",276 ± 126 nanograms/ml
same,serum ir-GH,"[2]; 1.0 μg i.v., +5 min",4551 ± 1825 nanograms/ml
same,serum ir-GH,"[2]; 1.0 μg i.v., +10 min",1748 ± 564 nanograms/ml
same,serum ir-GH,"[2]; 1.0 μg i.v., +15 min",730 ± 158 nanograms/ml
same,serum ir-GH,"[2]; 1.0 μg i.v., +30 min",234 ± 53 nanograms/ml
same,serum ir-GH,"[2]; 1.0 μg i.v., +60 min",267 ± 129 nanograms/ml
same,serum ir-GH,"[2]; 1.0 μg i.v., -1 min (before injection)",142 ± 24 nanograms/ml
same,serum ir-GH,"[2]; 10.0 μg i.v., +5 min",7077 ± 1943 nanograms/ml
same,serum ir-GH,"[2]; 10.0 μg i.v., +10 min",4676 ± 585 nanograms/ml
same,serum ir-GH,"[2]; 10.0 μg i.v., +15 min",2464 ± 378 nanograms/ml
same,serum ir-GH,"[2]; 10.0 μg i.v., +30 min",616 ± 112 nanograms/ml
same,serum ir-GH,"[2]; 10.0 μg i.v., +60 min",223 ± 26 nanograms/ml
same,serum ir-GH,"[2]; 10.0 μg i.v., -1 min (before injection)",234 ± 76 nanograms/ml
